Laboratory results as given in PubChem BioAssay AID1963872 (Molecular Pharmacology Branch, DTP, NCI, 2024).

Tested on: KRAS patient-derived spheroids with HUVEC/MSC, viability
Experiment: Anticancer human tumor 519858-162-T-J1-PDC patient-derived colon adenocarcinoma cell line growth inhibition [KRAS2]
Settings: for viability, T/C: stronger effect = lower value
In short: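 Combination screen of spheroid viability in tumor-cell co-cultures with endothelial (HUVEC) and mesenchymal stem cell stroma. Each agent was tested in half-log dilutions, topping at clinical Cmax or at 10 microM without a known Cmax.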

[1] = curve of first compound, second compound 0.1 µM
[2] = curve of first compound, second compound 0.316 µM
[3] = curve of first compound, second compound 1 µM
[4] = curve of first compound, second compound 3.16 µM
[5] = curve of first compound, second compound 10 µM
[6] = second compound 0.1 µM, first compound 0.000316 µM
[7] = second compound 0.1 µM, first compound 0.001 µM
[8] = second compound 0.1 µM, first compound 0.00316 µM
[9] = second compound 0.1 µM, first compound 0.01 µM
[10] = second compound 0.1 µM, first compound 0.0316 µM
[11] = second compound 0.1 µM, first compound 0.1 µM
[12] = second compound 0.316 µM, first compound 0.000316 µM
[13] = second compound 0.316 µM, first compound 0.001 µM
[14] = second compound 0.316 µM, first compound 0.00316 µM
[15] = second compound 0.316 µM, first compound 0.01 µM
[16] = second compound 0.316 µM, first compound 0.0316 µM
[17] = second compound 0.316 µM, first compound 0.1 µM
[18] = second compound 1 µM, first compound 0.000316 µM
[19] = second compound 1 µM, first compound 0.001 µM
[20] = second compound 1 µM, first compound 0.00316 µM
[21] = second compound 1 µM, first compound 0.01 µM
[22] = second compound 1 µM, first compound 0.0316 µM
[23] = second compound 1 µM, first compound 0.1 µM
[24] = second compound 3.16 µM, first compound 0.000316 µM
[25] = second compound 3.16 µM, first compound 0.001 µM
[26] = second compound 3.16 µM, first compound 0.00316 µM
[27] = second compound 3.16 µM, first compound 0.01 µM
[28] = second compound 3.16 µM, first compound 0.0316 µM
[29] = second compound 3.16 µM, first compound 0.1 µM
[30] = second compound 10 µM, first compound 0.000316 µM
[31] = second compound 10 µM, first compound 0.001 µM
[32] = second compound 10 µM, first compound 0.00316 µM
[33] = second compound 10 µM, first compound 0.01 µM
[34] = second compound 10 µM, first compound 0.0316 µM
[35] = second compound 10 µM, first compound 0.1 µM
[36] = second compound 0.1 µM, first compound 0.316 µM
[37] = second compound 0.1 µM, first compound 1 µM
[38] = second compound 0.1 µM, first compound 3.16 µM
[39] = second compound 0.1 µM, first compound 10 µM
[40] = second compound 0.316 µM, first compound 0.316 µM
[41] = second compound 0.316 µM, first compound 1 µM
[42] = second compound 0.316 µM, first compound 3.16 µM
[43] = second compound 0.316 µM, first compound 10 µM
[44] = second compound 1 µM, first compound 0.316 µM
[45] = second compound 1 µM, first compound 1 µM
[46] = second compound 1 µM, first compound 3.16 µM
[47] = second compound 1 µM, first compound 10 µM
[48] = second compound 3.16 µM, first compound 0.316 µM
[49] = second compound 3.16 µM, first compound 1 µM
[50] = second compound 3.16 µM, first compound 3.16 µM
[51] = second compound 3.16 µM, first compound 10 µM
[52] = curve of first compound, second compound 0.0316 µM
[53] = second compound 0.0316 µM, first compound 0.0316 µM
[54] = second compound 0.0316 µM, first compound 0.1 µM
[55] = second compound 0.0316 µM, first compound 0.316 µM
[56] = second compound 0.0316 µM, first compound 1 µM
[57] = second compound 0.0316 µM, first compound 3.16 µM
[58] = second compound 0.0316 µM, first compound 10 µM
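Also: compound exposure lasted seven days before readout.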
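For viability, T/C in this document: 100% = DMSO vehicle control viability.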

## CN(C)C/C=C/C(=O)Nc1cc2c(Nc3ccc(F)c(Cl)c3)ncnc2cc1O[C@H]1CCOC1 + C=CC(=O)N1CCN(c2nc(=O)n(-c3c(C)ccnc3C(C)C)c3nc(-c4c(O)cccc4F)c(F)cc23)C(C)C1
[1]
  IC50: > 0.1 µM
[2]
  IC50: > 0.1 µM
[3]
  IC50: > 0.1 µM
[4]
  IC50: > 0.1 µM
[5]
  IC50: > 0.1 µM
[6]
  viability, T/C: 86.2%
[7]
  viability, T/C: 95%
[8]
  viability, T/C: 86.8%
[9]
  viability, T/C: 80%
[10]
  viability, T/C: 87.4%
[11]
  viability, T/C: 84.8%
[12]
  viability, T/C: 85.6%
[13]
  viability, T/C: 103%
[14]
  viability, T/C: 75.2%
[15]
  viability, T/C: 86%
[16]
  viability, T/C: 93.9%
[17]
  viability, T/C: 60.2%
[18]
  viability, T/C: 110%
[19]
  viability, T/C: 77.8%
[20]
  viability, T/C: 71%
[21]
  viability, T/C: 83.4%
[22]
  viability, T/C: 61.9%
[23]
  viability, T/C: 80.2%
[24]
  viability, T/C: 61.4%
[25]
  viability, T/C: 69.7%
[26]
  viability, T/C: 90.5%
[27]
  viability, T/C: 61.1%
[28]
  viability, T/C: 61.5%
[29]
  viability, T/C: 81.7%
[30]
  viability, T/C: 74.8%
[31]
  viability, T/C: 92.6%
[32]
  viability, T/C: 79.1%
[33]
  viability, T/C: 67.5%
[34]
  viability, T/C: 80.9%
[35]
  viability, T/C: 73.6%

## COC(=O)c1ccc2c(C(=Nc3ccc(N(C)C(=O)CN4CCN(C)CC4)cc3)c3ccccc3)c(O)[nH]c2c1
Compound 0.0316 µM
  viability, T/C: 87.6% [middle of 5 runs]
Curve of compound
  IC50: > 10 µM

## COC(=O)c1ccc2c(C(=Nc3ccc(N(C)C(=O)CN4CCN(C)CC4)cc3)c3ccccc3)c(O)[nH]c2c1 + COc1cc2nc(C)nc(NC(C)c3cc(N)cc(C(F)(F)F)c3)c2cc1OC1CCOC1
[1]
  IC50: > 10 µM
[2]
  IC50: > 10 µM
[3]
  IC50: > 10 µM
[4]
  IC50: > 10 µM
[5]
  IC50: 4.74 µM
[10]
  viability, T/C: 71.2%
[11]
  viability, T/C: 44.7%
[36]
  viability, T/C: 48.3%
[37]
  viability, T/C: 71.4%
[38]
  viability, T/C: 85.2%
[39]
  viability, T/C: 113%
[16]
  viability, T/C: 59.1%
[17]
  viability, T/C: 51.8%
[40]
  viability, T/C: 92%
[41]
  viability, T/C: 75.1%
[42]
  viability, T/C: 62.1%
[43]
  viability, T/C: 73.7%
[22]
  viability, T/C: 64.5%
[23]
  viability, T/C: 57.3%
[44]
  viability, T/C: 55.1%
[45]
  viability, T/C: 51.6%
[46]
  viability, T/C: 51%
[47]
  viability, T/C: 77.9%
[28]
  viability, T/C: 64.3%
[29]
  viability, T/C: 64.6%
[48]
  viability, T/C: 50.2%
[49]
  viability, T/C: 55.2%
[50]
  viability, T/C: 66.1%
[51]
  viability, T/C: 88.1%
[34]
  viability, T/C: 66.2%
[35]
  viability, T/C: 53.3%
Second compound 10 µM, first compound 0.316 µM
  viability, T/C: 56.3%
Second compound 10 µM, first compound 1 µM
  viability, T/C: 80.9%
Second compound 10 µM, first compound 3.16 µM
  viability, T/C: 128%
Second compound 10 µM, first compound 10 µM
  viability, T/C: 0.38%

## CCNC(=O)CC1N=C(c2ccc(Cl)cc2)c2cc(OC)ccc2-n2c(C)nnc21 (configuration not stated) + C=CC(=O)N1CCN(c2nc(OCC3CCCN3C)nc3c2CCN(c2cccc4cccc(C)c24)C3)CC1CC#N
[52]
  IC50: 1.53 µM
[1]
  IC50: 1.73 µM
[2]
  IC50: 1.33 µM
[3]
  IC50: 1.44 µM
[4]
  IC50: 0.2 µM
[53]
  viability, T/C: 90.5%
[54]
  viability, T/C: 76.3%
[55]
  viability, T/C: 92.1%
[56]
  viability, T/C: 57.6%
[57]
  viability, T/C: 42.6%
[58]
  viability, T/C: 31.6%
[10]
  viability, T/C: 85.5%
[11]
  viability, T/C: 93.8%
[36]
  viability, T/C: 79.7%
[37]
  viability, T/C: 59.2%
[38]
  viability, T/C: 40.4%
[39]
  viability, T/C: 27.2%
[16]
  viability, T/C: 101%
[17]
  viability, T/C: 88.3%
[40]
  viability, T/C: 66.4%
[41]
  viability, T/C: 54.1%
[42]
  viability, T/C: 40.4%
[43]
  viability, T/C: 22.9%
[22]
  viability, T/C: 89.3%
[23]
  viability, T/C: 74.6%
[44]
  viability, T/C: 70.4%
[45]
  viability, T/C: 58.2%
[46]
  viability, T/C: 35.8%
[47]
  viability, T/C: 20.6%
[28]
  viability, T/C: 69.9%
[29]
  viability, T/C: 55.2%
[48]
  viability, T/C: 46.9%
[49]
  viability, T/C: 33.2%
[50]
  viability, T/C: 29.6%
[51]
  viability, T/C: 18.4%

## Cn1ncnc1[C@H]1c2n[nH]c(=O)c3cc(F)cc(c23)N[C@@H]1c1ccc(F)cc1 + C=CC(=O)N1CCN(c2nc(=O)n(-c3c(C)ccnc3C(C)C)c3nc(-c4c(O)cccc4F)c(F)cc23)C(C)C1
[1]
  IC50: > 0.1 µM
[2]
  IC50: > 0.1 µM
[3]
  IC50: > 0.1 µM
[4]
  IC50: > 0.1 µM
[5]
  IC50: > 0.1 µM
[6]
  viability, T/C: 105%
[7]
  viability, T/C: 89.7%
[8]
  viability, T/C: 106%
[9]
  viability, T/C: 94.3%
[10]
  viability, T/C: 75.1%
[11]
  viability, T/C: 76.8%
[12]
  viability, T/C: 95.2%
[13]
  viability, T/C: 83.4%
[14]
  viability, T/C: 94.8%
[15]
  viability, T/C: 76%
[16]
  viability, T/C: 93%
[17]
  viability, T/C: 96.2%
[18]
  viability, T/C: 79.9%
[19]
  viability, T/C: 71.8%
[20]
  viability, T/C: 94.1%
[21]
  viability, T/C: 67.6%
[22]
  viability, T/C: 102%
[23]
  viability, T/C: 89.9%
[24]
  viability, T/C: 82%
[25]
  viability, T/C: 85.1%
[26]
  viability, T/C: 88.3%
[27]
  viability, T/C: 120%
[28]
  viability, T/C: 76.8%
[29]
  viability, T/C: 99.2%
[30]
  viability, T/C: 102%
[31]
  viability, T/C: 75.4%
[32]
  viability, T/C: 80.5%
[33]
  viability, T/C: 86.9%
[34]
  viability, T/C: 84.9%
[35]
  viability, T/C: 93.6%

## O=C(c1cc(Cc2n[nH]c(=O)c3ccccc23)ccc1F)N1CCN(C(=O)C2CC2)CC1 + C=CC(=O)N1CCN(c2nc(OCC3CCCN3C)nc3c2CCN(c2cccc4cccc(C)c24)C3)CC1CC#N
[52]
  IC50: > 10 µM
[1]
  IC50: > 10 µM
[2]
  IC50: > 10 µM
[3]
  IC50: > 10 µM
[4]
  IC50: > 10 µM
[53]
  viability, T/C: 82.5%
[54]
  viability, T/C: 90.2%
[55]
  viability, T/C: 80.3%
[56]
  viability, T/C: 86.8%
[57]
  viability, T/C: 71.2%
[58]
  viability, T/C: 93.3%
[10]
  viability, T/C: 72.9%
[11]
  viability, T/C: 115%
[36]
  viability, T/C: 102%
[37]
  viability, T/C: 101%
[38]
  viability, T/C: 102%
[39]
  viability, T/C: 101%
[16]
  viability, T/C: 70.3%
[17]
  viability, T/C: 94.5%
[40]
  viability, T/C: 83.7%
[41]
  viability, T/C: 84.5%
[42]
  viability, T/C: 85.4%
[43]
  viability, T/C: 98.7%
[22]
  viability, T/C: 91.2%
[23]
  viability, T/C: 71.3%
[44]
  viability, T/C: 112%
[45]
  viability, T/C: 97.5%
[46]
  viability, T/C: 86.9%
[47]
  viability, T/C: 96.9%
[28]
  viability, T/C: 79.2%
[29]
  viability, T/C: 69.4%
[48]
  viability, T/C: 60.8%
[49]
  viability, T/C: 85.6%
[50]
  viability, T/C: 98%
[51]
  viability, T/C: 80.2%
